Experimental data reported in ChEMBL document CHEMBL6153063 (Eur J Med Chem, 2025).
The source made the active and inactive calls. No cut-off for these calls is given here.

How the values were obtained:
MV4-11 [1] = assay: Induction of apoptosis in human MV4-11 cells assessed as late apoptotic cells at 200 nM incubated for 48 hrs by Annexin V/7AAD staining based flow cytometry (reference value: 1.7 %); type: functional
[2] = Inhibition of cell viability in human Gilteritinib-resistant MOLM-14 cells expressing FLT3 F691L mutant incubated for 48 hrs by Alamar blue assay; type: functional, cell-based; settings: Gilteritinib-resistant MOLM-14, 48 h
[3] = target: Apoptosis regulator Bcl-2 (Homo sapiens, UniProt P10415); assay: Binding affinity to Bcl-2 (unknown origin) assessed as dissociation constant incubated for 1 hr by KINOMEscan assay
Apoptosis regulator Bcl-2, sequence (P10415 whole entry): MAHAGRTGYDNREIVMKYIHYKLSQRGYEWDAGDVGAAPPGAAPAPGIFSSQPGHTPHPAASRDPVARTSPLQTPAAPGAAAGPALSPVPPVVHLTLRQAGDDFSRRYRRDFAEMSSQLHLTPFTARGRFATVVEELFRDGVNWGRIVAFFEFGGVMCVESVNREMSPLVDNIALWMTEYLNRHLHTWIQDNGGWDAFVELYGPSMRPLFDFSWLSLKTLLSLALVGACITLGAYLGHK

[4] = tested on: Gilteritinib-resistant MOLM-14; assay: Induction of apoptosis in human Gilteritinib-resistant MOLM-14 cells expressing FLT3 F691L mutant upto 200 nM incubated for 48 hrs by Annexin V/7AAD staining based flow cytometry; type: functional, cell-based
MV4-11 [5] = assay: Induction of apoptosis in human MV4-11 cells assessed as early apoptotic cells at 200 nM incubated for 48 hrs by Annexin V/7AAD staining based flow cytometry (reference value: 2.3 %); type: functional
[6] = tested on: Venetoclax-resistant MV4-11; assay: Induction of apoptosis in human Venetoclax-resistant MV4-11 cells overexpressing Bcl-2 upto 200 nM incubated for 48 hrs by Annexin V/7AAD staining based flow cytometry; type: functional, cell-based
MV4-11 [7] = assay: Induction of apoptosis in human MV4-11 cells assessed as viable cells at 200 nM incubated for 48 hrs by Annexin V/7AAD staining based flow cytometry (reference value: 95.6 %); type: functional; settings: read-out: Activity
MOLM-14 [8] = assay: Inhibition of cell viability in human MOLM-14 cells incubated for 48 hrs by Alamar blue assay; type: functional, cell-based; settings: MOLM-14, 48 h
MV4-11 [9] = assay: Inhibition of cell viability in human MV4-11 cells incubated for 48 hrs by Alamar blue assay; type: functional, cell-based; settings: MV4-11, 48 h
[10] = target: T1, Receptor-type tyrosine-protein kinase FLT3 (Homo sapiens, UniProt P36888); assay: Binding affinity to FLT3 (unknown origin) assessed as dissociation constant incubated for 1 hr by KINOMEscan assay
T1 sequence (P36888 whole entry): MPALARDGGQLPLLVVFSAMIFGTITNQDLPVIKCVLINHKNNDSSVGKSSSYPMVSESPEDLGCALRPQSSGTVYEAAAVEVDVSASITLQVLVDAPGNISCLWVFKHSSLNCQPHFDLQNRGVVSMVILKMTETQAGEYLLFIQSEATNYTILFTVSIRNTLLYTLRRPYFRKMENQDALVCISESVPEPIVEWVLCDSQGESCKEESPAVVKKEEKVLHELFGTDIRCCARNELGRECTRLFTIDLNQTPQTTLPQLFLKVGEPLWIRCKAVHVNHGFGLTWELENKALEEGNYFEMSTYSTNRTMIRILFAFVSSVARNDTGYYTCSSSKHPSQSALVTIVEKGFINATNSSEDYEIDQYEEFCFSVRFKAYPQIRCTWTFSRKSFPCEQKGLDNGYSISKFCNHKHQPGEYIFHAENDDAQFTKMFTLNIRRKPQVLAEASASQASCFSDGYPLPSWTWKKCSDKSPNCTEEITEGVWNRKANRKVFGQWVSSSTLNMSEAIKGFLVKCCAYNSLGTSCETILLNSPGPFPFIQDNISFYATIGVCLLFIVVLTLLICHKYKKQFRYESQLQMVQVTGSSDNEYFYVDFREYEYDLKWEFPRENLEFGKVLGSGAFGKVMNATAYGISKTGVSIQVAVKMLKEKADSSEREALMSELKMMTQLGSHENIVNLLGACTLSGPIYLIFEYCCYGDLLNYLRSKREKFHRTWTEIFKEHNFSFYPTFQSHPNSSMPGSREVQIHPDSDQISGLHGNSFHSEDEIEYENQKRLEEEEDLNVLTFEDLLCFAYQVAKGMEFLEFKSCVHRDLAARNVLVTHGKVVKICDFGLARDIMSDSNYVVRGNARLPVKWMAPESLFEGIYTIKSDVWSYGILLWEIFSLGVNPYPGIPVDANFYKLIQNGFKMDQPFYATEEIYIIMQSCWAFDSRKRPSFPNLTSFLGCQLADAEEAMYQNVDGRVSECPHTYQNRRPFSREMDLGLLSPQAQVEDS

[11] = Inhibition of cell viability in human Venetoclax-resistant MV4-11 cells overexpressing Bcl-2 incubated for 48 hrs by Alamar blue assay; type: functional, cell-based; settings: Venetoclax-resistant MV4-11, 48 h
MOLM-14 [12] = assay: Inhibition of cell viability in human MOLM-14 cells incubated for 48 hrs in presence of GIL by Alamar blue assay; type: functional, cell-based; settings: MOLM-14, 48 h
[13] = Inhibition of cell viability in human Venetoclax-resistant MV4-11 cells overexpressing Bcl-2 incubated for 48 hrs in presence of GIL by Alamar blue assay; type: functional, cell-based; settings: Venetoclax-resistant MV4-11, 48 h
MV4-11 [14] = assay: Inhibition of cell viability in human MV4-11 cells incubated for 48 hrs in presence of GIL by Alamar blue assay; settings: MV4-11, 48 h
[15] = Inhibition of cell viability in human Gilteritinib-resistant MOLM-14 cells expressing FLT3 F691L mutant incubated for 48 hrs in presence of GIL by Alamar blue assay; type: functional, cell-based; settings: Gilteritinib-resistant MOLM-14, 48 h
MV4-11 [16] = assay: Induction of apoptosis in human MV4-11 cells assessed as viable cells at 200 nM incubated for 48 hrs in presence of GIL by Annexin V/7AAD staining based flow cytometry (reference value: 95.6 %); type: functional; settings: read-out: Activity
MV4-11 [17] = assay: Induction of apoptosis in human MV4-11 cells assessed as early apoptotic cells at 200 nM incubated for 48 hrs in presence of GIL by Annexin V/7AAD staining based flow cytometry (reference value: 2.3 %); type: functional
MV4-11 [18] = assay: Induction of apoptosis in human MV4-11 cells assessed as late apoptotic cells at 200 nM incubated for 48 hrs in presence of GIL by Annexin V/7AAD staining based flow cytometry (reference value: 1.7 %); type: functional
cells [19] = settings: Homo sapiens, Venetoclax-resistant MV4-11, 48 h
MV4-11 [20] = assay: Induction of apoptosis in human MV4-11 cells assessed as late apoptotic cells at 200 nM incubated for 48 hrs in presence of VEN by Annexin V/7AAD staining based flow cytometry (reference value: 1.7 %); type: functional
MV4-11 [21] = assay: Inhibition of cell viability in human MV4-11 cells incubated for 48 hrs in presence of VEN by Alamar blue assay; settings: MV4-11, 48 h
cells [22] = settings: Homo sapiens, Gilteritinib-resistant MOLM-14, 48 h
MV4-11 [23] = assay: Induction of apoptosis in human MV4-11 cells assessed as viable cells at 200 nM incubated for 48 hrs in presence of VEN by Annexin V/7AAD staining based flow cytometry (reference value: 95.6 %); type: functional; settings: read-out: Activity
MV4-11 [24] = assay: Induction of apoptosis in human MV4-11 cells assessed as early apoptotic cells at 200 nM incubated for 48 hrs in presence of VEN by Annexin V/7AAD staining based flow cytometry (reference value: 2.3 %); type: functional
MOLM-14 [25] = assay: Inhibition of cell viability in human MOLM-14 cells incubated for 48 hrs in presence of VEN by Alamar blue assay; settings: MOLM-14, 48 h

With `CCc1nc(C(N)=O)c(Nc2ccc(N3CCC(N4CCN(C(=O)CNc5ccc(S(=O)(=O)NC(=O)c6ccc(N7CCN(CC8=C(c9ccc(Cl)cc9)CC(C)(C)CC8)CC7)cc6Oc6cnc7[nH]ccc7c6)cc5[N+](=O)[O-])CC4)CC3)c(OC)c2)nc1NC1CCOCC1` the Activity (MV4-11 [1]) was 42.1%, the IC50 [2] was > 10000 nM and the Kd [3] was 0.91 nM. For the same compound, the Activity [4] was “inactive”, the Activity (MV4-11 [5]) was 25.7% and the Activity [6] was “inactive”. It also gave a viability at 0.2 µM (MV4-11 [7]) of 30.7%, an IC50 (MOLM-14 [8]) of 1070 nM and an IC50 (MV4-11 [9]) of 33.7 nM. The Kd [10] was 205 nM and the IC50 [11] was 209 nM.
With `CCc1nc(C(N)=O)c(Nc2ccc(N3CCC(N4CCN(C(=O)CCCCCCNc5ccc(S(=O)(=O)NC(=O)c6ccc(N7CCN(CC8=C(c9ccc(Cl)cc9)CC(C)(C)CC8)CC7)cc6Oc6cnc7[nH]ccc7c6)cc5[N+](=O)[O-])CC4)CC3)c(OC)c2)nc1NC1CCOCC1` the IC50 [2] was > 10000 nM, the IC50 (MOLM-14 [8]) was 3330 nM and the IC50 (MV4-11 [9]) was 94 nM. The IC50 [11] was 907 nM.
In the case of `CCc1nc(C(N)=O)c(Nc2ccc(N3CCN(C(=O)CCCCCCNc4ccc(S(=O)(=O)NC(=O)c5ccc(N6CCN(CC7=C(c8ccc(Cl)cc8)CC(C)(C)CC7)CC6)cc5Oc5cnc6[nH]ccc6c5)cc4[N+](=O)[O-])CC3)c(OC)c2)nc1NC1CCOCC1`, the IC50 [2] is reported as 3280 nM, the IC50 (MOLM-14 [8]) is reported as 531 nM and the IC50 (MV4-11 [9]) is reported as 107 nM. The IC50 [11] was 280 nM.
In the case of `CCc1nc(C(N)=O)c(Nc2ccc(N3CCC(N4CCN(C(=O)C5CCN(c6ccc(S(=O)(=O)NC(=O)c7ccc(N8CCN(CC9=C(c%10ccc(Cl)cc%10)CC(C)(C)CC9)CC8)cc7Oc7cnc8[nH]ccc8c7)cc6[N+](=O)[O-])CC5)CC4)CC3)c(OC)c2)nc1NC1CCOCC1`, the IC50 [2] is reported as > 10000 nM, the IC50 (MOLM-14 [8]) is reported as > 10000 nM and the IC50 (MV4-11 [9]) is reported as 1170 nM. The IC50 [11] was > 10000 nM.
For `CC1(C)CCC(CN2CCN(c3ccc(C(=O)NS(=O)(=O)c4ccc(NCC5CCOCC5)c([N+](=O)[O-])c4)c(Oc4cnc5[nH]ccc5c4)c3)CC2)=C(c2ccc(Cl)cc2)C1` [VENETOCLAX], the IC50 (MOLM-14 [12]) was 16.4 nM, the IC50 [13] was 8.7 nM and the IC50 [2] was 2010 nM. For the same compound, the IC50 (MV4-11 [14]) was 2.6 nM, the IC50 [15] was 63.2 nM and the viability at 0.2 µM (MV4-11 [16]) was 0.4%. The IC50 (MOLM-14 [8]) was 1700 nM, the Activity (MV4-11 [17]) was 31.1% and the IC50 [11] was 756 nM. The Activity (MV4-11 [18]) was 66.9%.
For `CCc1nc(C(N)=O)c(Nc2ccc(N3CCN(C(=O)CNc4ccc(S(=O)(=O)NC(=O)c5ccc(N6CCN(CC7=C(c8ccc(Cl)cc8)CC(C)(C)CC7)CC6)cc5Oc5cnc6[nH]ccc6c5)cc4[N+](=O)[O-])CC3)c(OC)c2)nc1NC1CCOCC1`, the Activity (MV4-11 [1]) was 27.9%, the IC50 [2] was 1700 nM and the Kd [3] was 4.25 nM. For the same compound, the Activity [4] was “inactive”, the Activity (MV4-11 [5]) was 18.6% and the Activity [6] was “inactive”. It also gave a viability at 0.2 µM (MV4-11 [7]) of 52.2%, an IC50 (MOLM-14 [8]) of 265 nM and an IC50 (MV4-11 [9]) of 54.7 nM. The Kd [10] was 63 nM and the IC50 [11] was 162 nM.
With `CCc1nc(C(N)=O)c(Nc2ccc(N3CCN(C(=O)C4CCN(c5ccc(S(=O)(=O)NC(=O)c6ccc(N7CCN(CC8=C(c9ccc(Cl)cc9)CC(C)(C)CC8)CC7)cc6Oc6cnc7[nH]ccc7c6)cc5[N+](=O)[O-])CC4)CC3)c(OC)c2)nc1NC1CCOCC1` the IC50 [2] was > 10000 nM, the IC50 (MOLM-14 [8]) was > 10000 nM and the IC50 (MV4-11 [9]) was 968 nM. For the same compound, the IC50 [11] was 3220 nM.
Compound `CCc1nc(C(N)=O)c(Nc2ccc(N3CCC(N4CCN(C)CC4)CC3)c(OC)c2)nc1NC1CCOCC1` [GILTERITINIB] has an IC50 (cells [19]) of 8.7 nM, an IC50 [2] of 128 nM and an Activity (MV4-11 [20]) of 66.9%. The IC50 (MV4-11 [21]) was 2.6 nM, the IC50 (cells [22]) was 63.2 nM and the viability at 0.2 µM (MV4-11 [23]) was 0.4%. For the same compound, the Activity (MV4-11 [24]) was 31.1%, the IC50 (MOLM-14 [8]) was 25.7 nM and the IC50 (MV4-11 [9]) was 14.7 nM. The IC50 (MOLM-14 [25]) was 16.4 nM and the IC50 [11] was 53.7 nM.
